In patent US20130089599A1, “NANO-ENCAPSULATED THERAPEUTICS FOR CONTROLLED TREATMENT OF INFECTION AND OTHER DISEASES” (The United States of America as Represented by the …, priority 2011, published 2013):
In brackets after ≈: the same amount, converted by molar mass. One block for each compound: values may come before it.

Legend:
A. bumannii = assay: in vitro antibacterial activity (MIC50); format: cell-based; conditions: for Amount of Antimicrobial Agent required for Inhibition / MIC50 / in vitro antibacterial activity of individual antibiotic (MIC50): A. bumannii; for reduction of MIC50 of Rifampicin in cocktail with silver (control = 1) / reduction of MIC50 of Tobramycin in cocktail with silver (control = 1): A. baumannii
P. aeruginosa [1] = assay: in vitro antibacterial activity (MIC50); format: cell-based
P. mirabilis = assay: in vitro antibacterial activity (MIC50); format: cell-based
S. aureus [2] = assay: in vitro antibacterial activity (MIC50); format: cell-based; conditions: for MIC50: Staphylococcus aureus
[3] = test system: 4 bacterial strains (A. bumannii, P. aeruginosa, P. mirabilis and S. aureus); assay: in vitro antibacterial activity (MIC50), summary over strains; format: cell-based; conditions: against all 4 bacterial strains
A. baumannii [4] = assay: MIC50 for inhibition ring formation (MICfir), agar plate; format: cell-based; conditions: Acinetobacter baumannii; A.b; read-out: 50% minimum inhibitory concentrations (MIC50) needed for growth ring formation
P. aeruginosa [5] = assay: as above; format: cell-based; conditions: Pseudomonas aeruginosa; P.a; read-out: 50% minimum inhibitory concentrations (MIC50) needed for growth ring formation
P.m = assay: as above; format: cell-based; conditions: Proteus mirabilis, read-out: 50% minimum inhibitory concentrations (MIC50) needed for growth ring formation
S. aureus [6] = assay: as above; format: cell-based; conditions: Staphylococcus aureus; S.a; read-out: 50% minimum inhibitory concentrations (MIC50) needed for growth ring formation
[7] = test system: S. aureus methicillin resistant strain; assay: as above; format: cell-based; conditions: Staphylococcus aureus, MRSA; read-out: 50% minimum inhibitory concentrations (MIC50) needed for growth ring formation
K. pneumoniae = assay: as above; format: cell-based; conditions: Klebsiella pneumoniae; K.p; read-out: 50% minimum inhibitory concentrations (MIC50) needed for growth ring formation
A. baumannii [8] = assay: effect of storage time on antibiotic functionality; format: physicochemical; conditions: 1 mg/ml solution stored at 37° C., day 0 to day 35
Experimental: The effect of storage time on antibiotic functionality of tobramycin and rifampicin against A. baumannii were also tested. Tobramycin and rifampicin solutions (1 mg/ml in water and DMSO, respectively) were kept at room temperature (24° C.) or 37° C. for up to 35 days, and the antimicrobial activities of the antibiotics at different time points were tested by applying the antibiotics to A. Baumannii. MIC50 were determined and compared. […] P values for tobramycin and rifampicin (from day 0 to day 35) are 0.593 and 0.442 respectively (FIG. 3)

SMILES: CN[C@H](CC(C)C)C(=O)N[C@H]1C(=O)N[C@@H](CC(N)=O)C(=O)N[C@H]2C(=O)N[C@H]3C(=O)N[C@H](C(=O)N[C@H](C(=O)O)c4cc(O)cc(O)c4-c4cc3ccc4O)[C@H](O)c3ccc(c(Cl)c3)Oc3cc2cc(c3O[C@@H]2O[C@H](CO)[C@@H](O)[C@H](O)[C@H]2O[C@H]2C[C@](C)(N)[C@H](O)[C@H](C)O2)Oc2ccc(cc2Cl)[C@H]1O [Vancomycin]
- Amount of Antimicrobial Agent required for Inhibition (A. bumannii): 79.4 ± 4.1 mg/mL
- in vitro antibacterial activity of individual antibiotic (MIC50) (A. bumannii): 79.4 ± 4.1 mg/mL
- Amount of Antimicrobial Agent required for Inhibition (P. aeruginosa [1]): >1000 mg/mL
- in vitro antibacterial activity of individual antibiotic (MIC50) (P. aeruginosa [1]): >1000 mg/mL
- Amount of Antimicrobial Agent required for Inhibition (P. mirabilis): >1000 mg/mL
- in vitro antibacterial activity of individual antibiotic (MIC50) (P. mirabilis): >1000 mg/mL

SMILES: CCC[C@@H]1C[C@@H](C(=O)N[C@@H]([C@H]2O[C@H](SC)[C@H](O)[C@@H](O)[C@H]2O)[C@H](C)Cl)N(C)C1 [Clindamycin]
- Amount of Antimicrobial Agent required for Inhibition (A. bumannii): 2.72 ± 0.68 mg/mL
- in vitro antibacterial activity of individual antibiotic (MIC50) (A. bumannii): 2.72 ± 0.68 mg/mL
- Amount of Antimicrobial Agent required for Inhibition (P. aeruginosa [1]): >1000 mg/mL
- in vitro antibacterial activity of individual antibiotic (MIC50) (P. aeruginosa [1]): >1000 mg/mL
- Amount of Antimicrobial Agent required for Inhibition (P. mirabilis): 23.88 ± 8.43 mg/mL
- in vitro antibacterial activity of individual antibiotic (MIC50) (P. mirabilis): 23.88 ± 8.43 mg/mL

SMILES: [Ag+] [Silver Ion]
- Amount of Antimicrobial Agent required for Inhibition (A. bumannii): 1.52 ± 0.73 mg/mL
- reduction of MIC50 of Rifampicin in cocktail with silver (control = 1) (A. bumannii; Silver Ion at Mic 12.5): 1.73 fold
- reduction of MIC50 of Tobramycin in cocktail with silver (control = 1) (A. bumannii; Silver Ion at Mic 12.5): 2 fold
- reduction of MIC50 of Rifampicin in cocktail with silver (control = 1) (A. bumannii; Silver Ion at Mic 25): 3.6 fold
- reduction of MIC50 of Tobramycin in cocktail with silver (control = 1) (A. bumannii; Silver Ion at Mic 25): 4.2 fold
- reduction of MIC50 of Rifampicin in cocktail with silver (control = 1) (A. bumannii; Silver Ion at Mic 50): 9 fold
- Amount of Antimicrobial Agent required for Inhibition (P. aeruginosa [1]): 5.34 ± 3.07 mg/mL
- reduction of MIC50 of Rifampicin in cocktail with silver (control = 1) (P. aeruginosa [1]; Silver Ion at Mic 12.5): 1.6 fold
- reduction of MIC50 of Tobramycin in cocktail with silver (control = 1) (P. aeruginosa [1]; Silver Ion at Mic 12.5): 1.6 fold
- reduction of MIC50 of Rifampicin in cocktail with silver (control = 1) (P. aeruginosa [1]; Silver Ion at Mic 25): 4.1 fold
- reduction of MIC50 of Tobramycin in cocktail with silver (control = 1) (P. aeruginosa [1]; Silver Ion at Mic 25): 4.1 fold
- reduction of MIC50 of Rifampicin in cocktail with silver (control = 1) (P. aeruginosa [1]; Silver Ion at Mic 50): 10.4 fold
- reduction of MIC50 of Tobramycin in cocktail with silver (control = 1) (P. aeruginosa [1]; Silver Ion at Mic 50): 10.4 fold
- Amount of Antimicrobial Agent required for Inhibition (P. mirabilis): 4.56 ± 1.49 mg/mL
- reduction of MIC50 of Rifampicin in cocktail with silver (control = 1) (P. mirabilis; Silver Ion at Mic 12.5): 0.74 fold
- reduction of MIC50 of Tobramycin in cocktail with silver (control = 1) (P. mirabilis; Silver Ion at Mic 12.5): 0.74 fold
- reduction of MIC50 of Rifampicin in cocktail with silver (control = 1) (P. mirabilis; Silver Ion at Mic 25): 2.4 fold
- reduction of MIC50 of Tobramycin in cocktail with silver (control = 1) (P. mirabilis; Silver Ion at Mic 25): 2.5 fold
- reduction of MIC50 of Rifampicin in cocktail with silver (control = 1) (P. mirabilis; Silver Ion at Mic 50): 6.3 fold
- reduction of MIC50 of Tobramycin in cocktail with silver (control = 1) (P. mirabilis; Silver Ion at Mic 50): 6.5 fold
- reduction of MIC50 of Rifampicin in cocktail with silver (control = 1) (S. aureus [2]; Silver Ion at Mic 12.5): 1 fold
- reduction of MIC50 of Tobramycin in cocktail with silver (control = 1) (S. aureus [2]; Silver Ion at Mic 12.5): 1.13 fold
- reduction of MIC50 of Rifampicin in cocktail with silver (control = 1) (S. aureus [2]; Silver Ion at Mic 25): 9.3 fold
- reduction of MIC50 of Tobramycin in cocktail with silver (control = 1) (S. aureus [2]; Silver Ion at Mic 25): 9.3 fold
- reduction of MIC50 of Rifampicin in cocktail with silver (control = 1) (S. aureus [2]; Silver Ion at Mic 50): 21 fold
- reduction of MIC50 of Tobramycin in cocktail with silver (control = 1) (S. aureus [2]; Silver Ion at Mic 50): 21 fold

Further lines, with some results ahead:

- MIC50 (A. bumannii): ≤ 0.001 mg/mL
- in vitro antibacterial activity of individual antibiotic (MIC50) (A. bumannii): 0.085 ± 0.01 mg/mL
- in vitro antibacterial activity of individual antibiotic (MIC50) (P. aeruginosa [1]): 19.08 ± 6.14 mg/mL
- in vitro antibacterial activity of individual antibiotic (MIC50) (P. mirabilis): 3.77 ± 0.92 mg/mL
- MIC50 (S. aureus [2]): ≤ 0.001 mg/mL
- MIC50 [3]: < 0.01 mg/mL
- MIC50 (A. baumannii [4]): 0.045 ± 0.0026 mg/mL (≈ 54.7 µM)
- MIC50 (P. aeruginosa [5]): 0.185 ± 0.0158 mg/mL (≈ 225 µM)
- MIC50 (P.m): 0.026 ± 0.0035 mg/mL (≈ 31.6 µM)
- MIC50 (S. aureus [6]): 0.02 ± 0.001 µg/mL (≈ 0.0243 µM)
- MIC50 [7]: 0.02 ± 0.001 µg/mL (≈ 0.0243 µM)
- MIC50 (K. pneumoniae): 0.045 ± 0.0036 mg/mL (≈ 54.7 µM)
SMILES: CO[C@H]1/C=C/O[C@@]2(C)Oc3c(C)c(O)c4c(O)c(c(/C=N/N5CCN(C)CC5)c(O)c4c3C2=O)NC(=O)/C(C)=C\C=C\[C@H](C)[C@H](O)[C@@H](C)[C@@H](O)[C@@H](C)[C@H](OC(C)=O)[C@@H]1C [Rifampicin]
- Amount of Antimicrobial Agent required for Inhibition (A. bumannii): 0.085 ± 0.01 mg/mL
- Amount of Antimicrobial Agent required for Inhibition (P. aeruginosa [1]): 19.08 ± 6.14 mg/mL
- Amount of Antimicrobial Agent required for Inhibition (P. mirabilis): 3.77 ± 0.92 mg/mL

- MIC50 (A. bumannii): ≤ 0.001 mg/mL
- in vitro antibacterial activity of individual antibiotic (MIC50) (A. bumannii): 1.05 ± 0.02 mg/mL
- in vitro antibacterial activity of individual antibiotic (MIC50) (P. aeruginosa [1]): 0.44 ± 0.12 mg/mL
- in vitro antibacterial activity of individual antibiotic (MIC50) (P. mirabilis): 7.2 ± 0.73 mg/mL
- MIC50 (S. aureus [2]): ≤ 0.001 mg/mL
- MIC50 [3]: < 0.01 mg/mL
- change of MIC50 on storage (antibiotic functionality) (A. baumannii [8]): no significantly change
- MIC50 (A. baumannii [4]): 0.0071 ± 0.0005 mg/mL (≈ 15.2 µM)
- MIC50 (P. aeruginosa [5]): 0.0056 ± 0.0002 mg/mL (≈ 12 µM)
- MIC50 (P.m): 0.0031 ± 0.0002 mg/mL (≈ 6.63 µM)
- MIC50 (S. aureus [6]): 2.2 ± 0.16 µg/mL (≈ 4.71 µM)
- MIC50 [7]: > 200 µg/mL
- MIC50 (K. pneumoniae): 0.00038 ± 5e-05 mg/mL (≈ 0.813 µM)
SMILES: NC[C@H]1O[C@H](O[C@H]2[C@H](O)[C@@H](O[C@H]3O[C@H](CO)[C@@H](O)[C@H](N)[C@H]3O)[C@H](N)C[C@@H]2N)[C@H](N)C[C@@H]1O [Tobramycin]
- Amount of Antimicrobial Agent required for Inhibition (A. bumannii): 1.05 ± 0.02 mg/mL
- Amount of Antimicrobial Agent required for Inhibition (P. aeruginosa [1]): 0.44 ± 0.12 mg/mL
- Amount of Antimicrobial Agent required for Inhibition (P. mirabilis): 7.2 ± 0.73 mg/mL

- in vitro antibacterial activity of individual antibiotic (MIC50) (A. bumannii): 10.25 ± 2.33 mg/mL
- in vitro antibacterial activity of individual antibiotic (MIC50) (P. aeruginosa [1]): 0.91 ± 0.56 mg/mL
- in vitro antibacterial activity of individual antibiotic (MIC50) (P. mirabilis): 1.02 ± 0.01 mg/mL
- MIC50 [3]: < 0.01 mg/mL
SMILES: C[C@@H](O)[C@H]1C(=O)N2C(C(=O)O)=C(SCCN=CN)C[C@H]12 [Imipenem]
- Amount of Antimicrobial Agent required for Inhibition (A. bumannii): 10.25 ± 2.33 mg/mL
- Amount of Antimicrobial Agent required for Inhibition (P. aeruginosa [1]): 0.91 ± 0.56 mg/mL
- Amount of Antimicrobial Agent required for Inhibition (P. mirabilis): 1.02 ± 0.01 mg/mL
